Tests used:
Conditions in all cases: qualitative statement
JAK2 = JAK2 (Homo sapiens, UniProt O60674); assay: In vitro biochemical assay, JAK2 inhibition
BRD4 BD2 = BRD4 BD2 (Homo sapiens, UniProt O60885); assay: In vitro biochemical assay, BRD4 BD2 inhibition
[1] = system: multiple liquid cancer cell lines; assay: Anti-proliferative activity against liquid cancer cell lines; format: cell-based
BRD4 BD1 = BRD4 BD1 (Homo sapiens, UniProt O60885); assay: In vitro biochemical assay, BRD4 BD1 inhibition
cMYC expression = cMYC expression down-regulation; format: cell-based
JAK2 signaling = JAK2 signaling down-regulation; format: cell-based

Sequence of JAK2 (O60674 whole entry): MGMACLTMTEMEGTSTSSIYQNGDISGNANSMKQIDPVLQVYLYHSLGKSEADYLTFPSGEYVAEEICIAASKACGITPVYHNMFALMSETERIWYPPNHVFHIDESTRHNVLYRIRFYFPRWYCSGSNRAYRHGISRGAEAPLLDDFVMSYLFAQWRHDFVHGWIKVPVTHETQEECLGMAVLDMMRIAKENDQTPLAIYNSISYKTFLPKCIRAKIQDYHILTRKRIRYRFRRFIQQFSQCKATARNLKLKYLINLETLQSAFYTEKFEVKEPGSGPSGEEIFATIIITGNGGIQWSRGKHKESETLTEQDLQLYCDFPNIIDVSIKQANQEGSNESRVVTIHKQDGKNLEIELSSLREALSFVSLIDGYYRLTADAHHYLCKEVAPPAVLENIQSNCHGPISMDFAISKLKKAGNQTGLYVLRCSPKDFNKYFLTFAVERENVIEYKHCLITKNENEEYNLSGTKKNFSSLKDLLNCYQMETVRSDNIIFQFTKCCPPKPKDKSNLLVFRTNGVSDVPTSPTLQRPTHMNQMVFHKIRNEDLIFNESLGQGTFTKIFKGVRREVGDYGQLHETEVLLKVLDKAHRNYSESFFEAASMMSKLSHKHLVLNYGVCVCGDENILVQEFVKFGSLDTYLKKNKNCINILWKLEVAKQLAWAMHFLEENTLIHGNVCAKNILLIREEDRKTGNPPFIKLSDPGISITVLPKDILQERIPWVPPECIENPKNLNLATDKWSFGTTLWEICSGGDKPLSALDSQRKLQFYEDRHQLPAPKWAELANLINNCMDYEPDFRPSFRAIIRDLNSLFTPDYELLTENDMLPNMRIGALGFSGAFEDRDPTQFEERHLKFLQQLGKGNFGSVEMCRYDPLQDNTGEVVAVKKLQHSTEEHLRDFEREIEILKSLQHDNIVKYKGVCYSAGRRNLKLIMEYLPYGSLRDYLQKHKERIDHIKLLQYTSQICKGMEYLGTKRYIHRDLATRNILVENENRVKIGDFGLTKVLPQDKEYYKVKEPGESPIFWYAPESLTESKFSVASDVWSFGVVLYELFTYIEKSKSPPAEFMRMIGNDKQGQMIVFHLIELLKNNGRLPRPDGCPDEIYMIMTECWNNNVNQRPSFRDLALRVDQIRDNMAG

inhibition of JAK2 (JAK2): inhibit | inhibition of BRD4 BD2 (BRD4 BD2): inhibit | inhibition of BRD4 BD1 (BRD4 BD1): inhibit
Compound: CN(C)C1CCN(c2ccc(Nc3ncc4ccn(-c5cccc(NS(=O)(=O)C(C)(C)C)c5)c4n3)cc2F)CC1 [OHM-581, N-(3-(2-((4-(4-(dimethylamino)piperidin-1-yl)-3-fluorophenyl)amino)-7H-pyrrolo[2,3-d]pyrimidin-7-yl)phenyl)-2-methylpropane-2-sulfonamide]
anti-proliferative activity [1]: significant anti-proliferative activity | cMYC expression (cMYC expression): robustly down-regulates | JAK2 signaling (JAK2 signaling): robustly down-regulates

Source: patent publication US20220315594A1, “METHOD OF SYNTHESIS OF COMPOUND FOR DUAL INHIBITION OF JAK2 AND BET” (OHM ONCOLOGY, priority 2019, published 2022)
